One experiment deals with S. aureus ATCC 29213. Kind of experiment: microbe, parasite or virus in culture. Conditions: Staphylococcus aureus, ATCC29213, read-out: Inhibition zone diameter. As for the experimental part:
Each agar well was loaded with 70 µL of a peptide solution (256 µg/mL).
For the agar diffusion assay, the bacterial strain was cultured overnight at 37 °C in the previously described media. Cultures were then inoculated at 1% (v/v) in a soft agar medium containing 1.5% (w/v) agar. Wells were created in the inoculated agar plates, and 70 µL of the humimycin analog solution (256 µg/mL) was added to each well. Kanamycin sulfate (256 µg/mL) and 5% dimethyl sulfoxide (DMSO) in water were included as positive and negative control, respectively.

For experiment [1], the system named is Escherichia coli ATCC 25922. Briefly: MIC, broth microdilution. It counts as cell-based. The following applies: 37 °C, 18–20 h, triplicate. The text has this:
(§1) Analogs were serially diluted two-fold from stock solutions.
In general terms: Broth dilution looks for growth in wells or tubes with falling amounts of substance.

Experiment [2] has as its system Bacillus subtilis ATCC 23857. Briefly: MIC, broth microdilution. Conditions: 37 °C, 18–20 h, triplicate. It counts as cell-based.
Description: as §1

Experiment [3] relates to Pseudomonas aeruginosa ATCC 27853. Briefly: MIC, broth microdilution. It counts as cell-based. The following applies: 37 °C, 18–20 h, triplicate.
Description: as §1

Experiment [4] has as its system Salmonella enterica ATCC 14028. Briefly: MIC, broth microdilution. It counts as cell-based. The following applies: 37 °C, 18–20 h, triplicate.
Description: as §1

Experiment [5] deals with Staphylococcus and Streptococcus species. Conditions: stereochemistry of the β-hydroxyl group; cited from earlier work. The text has this:
Among promising AMLPs of bacterial origin, humimycins show very attractive activities against S. aureus. Humimycins A 1 and B 2 are composed of a heptapeptide bearing an N-terminal β-hydroxy myristoyl lipid chain (Table 1). […] A novel approach was employed to discover humimycins by combining bioinformatics and chemical synthesis. Rather than depending on bacterial cultures to discover and produce ... || β-Hydroxymyristic acid is specifically incorporated into lipopeptides like surfactin by certain enzymes in Bacillus species. […] The presence of a hydroxyl group imparts some amphiphilicity, aiding interaction with bacterial mem ...

Experiment [6] deals with Staphylococcus aureus ATCC 43300. It counts as cell-based. Conditions: ATCC 43300.
Description: as §1

In experiment [7] the test system is Staphylococcus aureus ATCC 29213. It counts as cell-based.
Description: as §1

In brackets after ≈: the same amount, converted by molar mass. Where a name gives a salt, the structure may show the parent alone. Non-standard residues stand in square brackets, D forms with d. Residues, ends and D or L forms follow the SMILES beside them. *: point of attachment. Tetradecanoyl(3S-OH) = CCCCCCCCCCC[C@H](O)CC(=O)*

`NC[C@H]1O[C@H](O[C@H]2[C@H](O)[C@@H](O[C@H]3O[C@H](CO)[C@@H](O)[C@H](N)[C@H]3O)[C@H](N)C[C@@H]2N)[C@H](O)[C@@H](O)[C@@H]1O` [Kanamycin sulfate]: in the experiment with S. aureus ATCC 29213, the zone of inhibition at 256 µg/mL worked out at 24 mm.
As a reminder, the MIC is the least concentration at which growth counts as inhibited. A high value points to a less susceptible organism. `CCCCCCCCCCC[C@H](O)CC(=O)N[C@@H](Cc1ccc(O)cc1)C(=O)N[C@@H](CO)C(=O)N[C@H](Cc1ccc(O)cc1)C(=O)N[C@@H](Cc1ccccc1)C(=O)N[C@@H](C(=O)N[C@H](C(=O)N[C@H](C(=O)O)C(C)C)C(C)C)[C@H](C)O` [compound 1, reference compound] ({Tetradecanoyl(3S-OH)}-YS[dY]F[dT]VV-OH; N-terminus and C-terminus assumed): the minimum inhibitory concentration (MIC) entry is on record as “- (No antimicrobial activity was detected up to 256 µg/mL)” in experiment [1]; “- ^b (No antimicrobial activity was detected up to 256 µg/mL)” in experiment [2]; “- (No antimicrobial activity was detected up to 256 µg/mL)” in experiment [3]; “- (No antimicrobial activity was detected up to 256 µg/mL)” in experiment [4]; 16 µg/mL (≈ 14.5 µM) in experiment [6]; 8 µg/mL (≈ 7.24 µM) in experiment [7]. Besides, the “potency of (S)-isomer relative to (R)-isomer” value in experiment [5] is reported as “four-fold more potent”.
